Assay: gradient 5% acetonitrile 3 min, to 50% in 2 min, to 85% in 15 min, held 3 min, 100 µL/min
Details: column: Zorbax Extend-C18 2.1 x 50 mm; eluents: water / acetonitrile, 0.1% formic acid
Method in brief: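 Retention times of pure standards were taken from adduct peaks that were selected by computer and manually inspected. Over 3 months, mixtures of ~100 molecules were run by HPLC–quadrupole time-of-flight mass spectrometry in positive and negative ionization mode. The Zorbax Extend-C18 column (2.1 × 50 mm, 1.8 μm) ran at 100 μL/min in water and acetonitrile, each containing 0.1% formic acid, with 40 μL dead volume and 900 μL dwell volume.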

Row | RP-LC retention time | SMILES
1 | 849 s | COc1ccc(-n2c(=O)n(C)c(=O)c3cc(C(=O)NCc4ccccc4)cnc32)cc1
2 | 762 s | CCOC(=O)N1CCN(C(=O)CSc2nnc(C3COc4ccccc4O3)o2)CC1 (stereo not drawn)
3 | 820 s | COc1cccc(C2CC(c3cccc(NS(C)(=O)=O)c3)=NN2C(=O)C(C)(C)C)c1O (stereo not drawn)
4 | 638 s | CC(C)n1cnc2cc(CNC(=O)c3cc(F)ccc3Cl)ccc21
5 | 780 s | O=C(NCC1CCCO1)c1cnn2c(-c3ccc4c(c3)OCO4)ccnc12 (stereo not drawn)
6 | 597 s | COc1ccc(C(=O)NCc2ccc3c(c2)ncn3C(C)C)cn1
7 | 981 s | Cc1ccc(NC(=O)Cn2nc(C)cc2C(=O)Nc2cc(C)ccc2C)cc1
8 | 719 s | Cc1cc(C)c(S(=O)(=O)Nc2ccc(-c3cn4ccccc4n3)cc2)cc1C
9 | 638 s | Cn1cc(CCNC(=O)c2cncc(Br)c2)c2cccnc21
10 | 644 s | C=CCNC(=O)c1cc(C)nc2c(C)cc(C)cc12
11 | 925 s | COCCn1cc(C(=O)NC2CCCCC2)c2nn(-c3ccccc3)c(=O)c-2c1
12 | 736 s | COc1ccc(C2C(C(=O)C3CC3)=C(O)C(=O)N2CCCOC(C)C)cc1OC (stereo not drawn)
13 | 586 s | COc1ccc(C(=O)Nc2cccc(-c3csc(C)n3)c2)nn1
14 | 728 s | COc1ccc(CNC(=O)CCc2nnc3c4cc(-c5ccccc5)nn4ccn23)cc1
15 | 798 s | COCCNC(=O)CSc1nccnc1Oc1ccc(C)cc1
16 | 583 s | COCC(=O)NC1CCC12CCN(Cc1ccc(C)o1)CC2 (stereo not drawn)

Row | RP-LC retention time | SMILES
17 | 662 s | COc1ccc(N2CCN(C(=O)C3CC(=O)N(c4n[nH]c5cccc(F)c45)C3)CC2)cc1 (stereo not drawn)
18 | 916 s | CC(C)N1C(=O)c2cccnc2Sc2cc(NC(=O)c3ccc(F)cc3Cl)ccc21
19 | 922 s | COc1ccc(NC(=O)CN2CCc3[nH]c4c(C)cc(C)cc4c(=O)c3C2)cc1OC
20 | 654 s | CCOC(=O)c1c(C)oc2nc(C)nc(N3CCN(c4ccccn4)CC3)c12
21 | 666 s | COCCCn1c(C)cc(C(=O)NCC2Cn3cccc3C(=O)N2C)c1C (stereo not drawn)
22 | 772 s | CCn1cc(C)c(C(=O)O)c1CC(=O)N(C)Cc1ccccc1
23 | 644 s | CCCn1c(CCNC(=O)c2cccc(F)c2)nc2cccnc21
24 | 723 s | CCN1CCn2cc(S(=O)(=O)Nc3ccc(C)cc3)cc2C1=O
25 | 835 s | Cc1ccc(C)c(CNS(=O)(=O)c2cc(-c3[nH]ncc3C(=O)N3CCCC3)oc2C)c1
26 | 566 s | CCOC(=O)c1c(-c2ccc(OC)c(OC)c2)csc1NC(=O)CN1CCCC1
27 | 836 s | Cc1nnc(-c2cc(C)n(CC(=O)Nc3ccc(Br)cc3)c2C)o1
28 | 788 s | COc1cc2c(cc1OC)C(C(=O)NCc1ccc3c(c1)OCO3)C1c3ccccc3CCN1C2=O (stereo not drawn)
29 | 962 s | Cc1ccc(C(=O)Nc2ccc3c(c2)Sc2ncccc2C(=O)N3C(C)C)c(C)c1
30 | 816 s | COC(=O)CNC(=O)N1CCC2(CC1)Nc1cc(F)ccc1-n1cccc12
31 | 784 s | CN1C(=O)c2cccnc2Sc2cc(NC(=O)Cc3cccc(F)c3)ccc21
32 | 787 s | COc1ccccc1NC(=O)N1CCC(CNS(=O)(=O)Cc2cccc(F)c2)CC1

Continued, compound first:

Row | SMILES | RP-LC retention time
33 | Cc1ccc(-n2nc(C)c3sc(N(C)CC(=O)N4CCC5(CC4)OCCO5)nc32)cc1 | 932 s
34 | c1ccc(-c2noc(-c3cc(N4CCOCC4)nc4ccccc34)n2)cc1 | 1240 s
35 | Cc1nc(N2CCN(c3ncccn3)CC2)nc2c1C(=O)CCC2 | 886 s
36 | COc1ccc(C)cc1NC(=O)Cn1cnc2c(sc3nc(-c4ccccc4)ccc32)c1=O | 1090 s
37 | CC(=O)N1CCc2c([nH]c3ccccc23)C12C(=O)Nc1ccccc12 (stereo not drawn) | 721 s
38 | CCC(=O)N(C1CCOCC1)C1CCN(Cc2cc(F)c(F)cc2F)CC1 | 608 s
39 | Cc1ccc(NC(=O)Cc2nnc3ccc(-c4nc(C)no4)cn23)c(C)c1 | 781 s
40 | Cc1ccsc1C(=O)Nc1ccc(N2CCN(Cc3ccccc3)C2=O)nc1 | 834 s
41 | O=c1c2nnn(Cc3ccc(Cl)cc3)c2ncn1Cc1nc(-c2ccc3c(c2)OCO3)no1 | 982 s
42 | CC(=O)N1c2ccc(S(=O)(=O)N3CCCC3C(=O)NCc3ccc4c(c3)OCO4)cc2CC1C (stereo not drawn) | 779 s
43 | CCOC(=O)c1nc(NCc2ccc(CC)cc2)c2ccccc2n1 | 869 s
44 | COc1ccc(-c2nnc(-c3cc(S(=O)(=O)N4CCSCC4)ccc3Cl)o2)cc1 | 1080 s
45 | Cc1ccc(-c2noc(CN3C(=O)C(C)Oc4ccccc43)n2)cc1C (stereo not drawn) | 1180 s
46 | CSc1cccc(NC(=O)C2CCCN(C(=O)c3cc(-c4ccncc4)n[nH]3)C2)c1 (stereo not drawn) | 645 s
47 | O=C(CSc1cc(N2CCCCC2)ncn1)Nc1cccc(C(F)(F)F)c1 | 1020 s
48 | COc1cccc(NC(=O)C2CCCN(c3ncnc4c3nc3n4CCCCC3)C2)c1 (stereo not drawn) | 781 s
49 | O=C(O)c1cc(-c2ccccc2F)n[nH]1 | 630 s
50 | O=C(C1CCCN(c2ccc3cc(S(=O)(=O)N4CCCC4)ccc3n2)C1)N1CCc2ccccc21 (stereo not drawn) | 884 s
51 | Cn1cnnc1C1CCCCN1C(=O)COc1ccc(F)c(F)c1 (stereo not drawn) | 682 s

Row | SMILES | RP-LC retention time
52 | COc1cccc2cc(C(=O)Nc3nc(-c4ccc(Cl)cc4)cs3)c(=O)oc12 | 1290 s
53 | COc1cccc(-n2c(=O)c(C(=O)Nc3ccccc3F)c(O)c3cccnc32)c1 | 1200 s
54 | Cn1nc(N2CCCC(NS(=O)(=O)c3cccc4cccnc34)C2)ccc1=O (stereo not drawn) | 698 s
55 | CC(C)(C)c1cc(NCc2ccccn2)n2ncc(-c3ccccc3)c2n1 | 1230 s
56 | O=C(CSc1ccc(-n2ccnc2)nn1)NC1CCCCC1 | 564 s
57 | Cc1ccc(C)c(S(=O)(=O)N2CCc3nc(-c4ccc(F)cc4)ncc3C2)c1 | 1200 s
58 | O=C(Nc1ccccc1)c1cccn1Cc1noc(C2CC2)n1 | 885 s
59 | CCSc1nnc(NC(=O)c2cc(=O)c(OCc3ccc(F)cc3)co2)s1 | 791 s
60 | Cc1noc(C)c1-c1ccc(S(=O)(=O)NC2CCCc3ccccc32)cc1 (stereo not drawn) | 1040 s
61 | Cc1ccsc1CN1CCn2nnc(CCC(=O)N3CCOCC3)c2C1 | 628 s
62 | COC(=O)c1cnc(N2CCN(C3CCCCC3)CC2)c2ccccc12 | 683 s
63 | O=C(NCC1CCCO1)c1nnc(-c2ccc(S(=O)(=O)N3CCCC3)cc2)o1 (stereo not drawn) | 729 s
64 | O=C(Cc1csc(COc2ccccc2)n1)N1CCN(c2ccccn2)CC1 | 617 s
65 | Cn1cc(-c2nc(C(=O)N3CCc4ccccc43)cs2)c2cccnc21 | 1010 s
66 | O=C(Cn1cnc2nc3c(cc2c1=O)CCCC3)N1CCN(C(=O)c2ccco2)CC1 | 622 s
67 | O=C(NC1CCCCC1)C1CCN(c2ncccc2-c2nc(-c3ccc(Cl)cc3)no2)CC1 | 1230 s
68 | CCCCN1C(=O)CC2CCOC21C (stereo not drawn) | 753 s
69 | O=C(NCc1cccs1)c1nc(-c2ccnc(N3CCCCC3)c2)no1 | 742 s
70 | CCC(=O)N1CCC2(CC1)c1nccn1-c1ccccc1CN2CC(C)C | 632 s

Row | SMILES | RP-LC retention time
71 | Cc1cc(=O)n(CC(=O)N2CCN(c3ccc(F)cc3)CC2)c(N2CCOCC2)n1 | 674 s
72 | CCc1ccc(Nc2nc(C(=O)NCCc3cccs3)nc3ccccc23)cc1 | 907 s
73 | O=C(NCc1ccco1)c1ccccc1-c1nc(-c2ccccc2)no1 | 888 s
74 | Cn1c(C(=O)NCc2cc(F)ccc2F)cc2ccncc21 | 622 s
75 | Cc1ccc(Cn2nc3ccc(S(=O)(=O)N4CCc5ccccc5C4)cn3c2=O)cc1 | 1050 s
76 | CC(=O)Nc1ccc(C(=O)N2CC3CN(S(=O)(=O)c4cccc(F)c4)CC(C2)O3)cc1 | 685 s
77 | Cc1ccc(S(=O)(=O)N2CCC(n3c(-c4ccoc4)nc4cccnc43)C2)cc1Cl (stereo not drawn) | 986 s
78 | O=C(O)c1cnc(NCc2cccnc2)nc1-c1ccc(Cl)cc1 | 606 s
79 | CCn1nccc1C(=O)N1CCCC1c1ccc(Cl)cc1 (stereo not drawn) | 850 s
80 | COc1cccc(Cn2c(=O)c3sccc3n(Cc3nc(-c4ccc(F)c(Cl)c4)no3)c2=O)c1 | 1170 s
81 | Cc1[nH]c(=O)[nH]c(=O)c1CCC(=O)N1CCC(c2nc3ccccc3s2)CC1 | 592 s
82 | O=C(Cn1cccn1)N1CC(c2nc(-c3cccs3)no2)C1 | 644 s
83 | Cc1ccc(CNC(=O)CN2C(=O)CCCc3cc(S(=O)(=O)N4CCCCC4)ccc32)cc1 | 891 s
84 | CCOC(=O)c1cccc(Nc2c(-c3ccc4c(c3)OCO4)nc3cnccn23)c1 | 834 s
85 | N#Cc1ccc(-c2nc(-c3ccc(S(=O)(=O)N4CCC(C(=O)N5CCCC5)CC4)cc3)no2)cc1 | 947 s
86 | Cc1cccc(S(=O)(=O)N2C[C@H]3CN(S(=O)(=O)c4ccc(C#N)cc4)C[C@@H](C2)O3)c1 | 945 s
87 | CCc1nc2cc(-c3noc(-c4cccc5[nH]ccc45)n3)ccc2o1 | 1040 s
88 | CCn1cc(CN(C)C(=O)C2N(C(C)C)C(=O)C23CCCC3)c(C)n1 (stereo not drawn) | 612 s

Source: the METLIN SMRT retention time set (Domingo-Almenara et al. 2019)
